From ChEMBL document CHEMBL1152112, “1-Phenyl-[2H]-tetrahydropyridazin-3-one, A-53612, a selective orally active 5-lipoxygenase inhibitor” (Bioorg Med Chem Lett, 1992) come the findings set out here.

The species entered for data set [1] is Rattus norvegicus. The data set can be described thus: Toxicity was assessed from activity to convert hemoglobin to methemoglobin in vitro at 400 uM in rat; T-toxic.
The next data set has as its target T1, Cyclooxygenase (Rattus norvegicus, UniProt P35355+Q63921).
T1 sequence (P35355 whole entry): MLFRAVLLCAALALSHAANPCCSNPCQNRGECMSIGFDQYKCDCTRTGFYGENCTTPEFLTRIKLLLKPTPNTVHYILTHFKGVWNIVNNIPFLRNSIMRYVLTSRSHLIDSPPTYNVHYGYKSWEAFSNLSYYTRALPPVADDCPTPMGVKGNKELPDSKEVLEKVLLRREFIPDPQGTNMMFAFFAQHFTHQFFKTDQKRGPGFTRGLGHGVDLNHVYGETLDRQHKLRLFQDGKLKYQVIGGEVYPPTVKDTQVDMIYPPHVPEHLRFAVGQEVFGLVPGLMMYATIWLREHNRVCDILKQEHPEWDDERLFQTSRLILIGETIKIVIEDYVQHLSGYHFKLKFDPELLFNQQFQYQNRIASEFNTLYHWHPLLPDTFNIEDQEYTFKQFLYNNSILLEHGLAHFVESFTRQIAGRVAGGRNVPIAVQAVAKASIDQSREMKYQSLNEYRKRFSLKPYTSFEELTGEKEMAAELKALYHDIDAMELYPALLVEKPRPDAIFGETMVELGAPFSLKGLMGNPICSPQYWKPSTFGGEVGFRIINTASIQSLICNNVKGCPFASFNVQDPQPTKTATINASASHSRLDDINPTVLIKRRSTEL
T1 sequence (Q63921 whole entry): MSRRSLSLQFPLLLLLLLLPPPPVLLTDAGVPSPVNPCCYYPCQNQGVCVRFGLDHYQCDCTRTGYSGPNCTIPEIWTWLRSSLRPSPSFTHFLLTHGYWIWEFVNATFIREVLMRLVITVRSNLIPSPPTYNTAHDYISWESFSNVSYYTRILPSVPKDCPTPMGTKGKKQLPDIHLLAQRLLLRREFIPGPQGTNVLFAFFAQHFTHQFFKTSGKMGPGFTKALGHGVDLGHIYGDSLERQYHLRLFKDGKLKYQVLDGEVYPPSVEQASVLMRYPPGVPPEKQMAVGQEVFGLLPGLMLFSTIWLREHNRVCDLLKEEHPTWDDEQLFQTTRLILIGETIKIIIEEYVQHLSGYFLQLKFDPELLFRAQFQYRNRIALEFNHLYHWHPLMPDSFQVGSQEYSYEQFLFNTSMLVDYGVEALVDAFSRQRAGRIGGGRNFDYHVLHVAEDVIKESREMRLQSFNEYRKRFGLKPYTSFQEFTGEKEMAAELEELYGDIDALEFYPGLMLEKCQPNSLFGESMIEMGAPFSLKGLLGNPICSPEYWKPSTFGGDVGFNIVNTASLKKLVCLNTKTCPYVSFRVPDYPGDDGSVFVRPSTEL
In words: Inhibitory activity against intact rat PMNL, PGE-2 cyclooxygenase was evaluated. The data set is classed as protein assay.

Data set [2] has as its system Rattus norvegicus. The data set can be described thus: The in vivo activity of compound was evaluated in a rat anaphylaxis model involving antigen-antibody stimulated leukotriene generation in the peritoneum by oral administration. The data set is classed as functional.
The target in data set [3] is T2, Polyunsaturated fatty acid lipoxygenase ALOX12 (Homo sapiens) (UniProt P18054).
T2 sequence (whole entry): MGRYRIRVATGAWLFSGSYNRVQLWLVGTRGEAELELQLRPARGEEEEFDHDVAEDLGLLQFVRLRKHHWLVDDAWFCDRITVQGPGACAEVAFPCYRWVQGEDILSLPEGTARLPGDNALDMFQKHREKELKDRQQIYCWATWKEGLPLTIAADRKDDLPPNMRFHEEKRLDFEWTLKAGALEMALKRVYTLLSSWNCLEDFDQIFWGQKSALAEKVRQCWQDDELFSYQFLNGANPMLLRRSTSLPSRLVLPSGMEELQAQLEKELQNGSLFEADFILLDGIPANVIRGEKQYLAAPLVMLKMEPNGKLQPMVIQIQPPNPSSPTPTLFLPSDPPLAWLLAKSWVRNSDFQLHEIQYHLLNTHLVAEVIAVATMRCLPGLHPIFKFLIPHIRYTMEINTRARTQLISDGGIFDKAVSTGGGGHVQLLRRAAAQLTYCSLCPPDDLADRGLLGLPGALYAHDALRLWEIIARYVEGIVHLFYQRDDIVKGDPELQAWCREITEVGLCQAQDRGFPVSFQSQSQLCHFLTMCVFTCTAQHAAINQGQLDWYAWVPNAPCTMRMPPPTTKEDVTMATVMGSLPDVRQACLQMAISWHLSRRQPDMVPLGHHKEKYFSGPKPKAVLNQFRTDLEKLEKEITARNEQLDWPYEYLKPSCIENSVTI
The data set can be described thus: Inhibitory activity against human platelet 12-lipoxygenase was evaluated at 100 uM.

The subject of data set [4] is Rattus norvegicus. The data set can be described thus: In vivo activity of compound was evaluated in a rat anaphylaxis model involving antigen-antibody stimulated leukotriene generation in the peritoneum by oral administration. It counts as functional.
In data set [5] the target is T3, Polyunsaturated fatty acid 5-lipoxygenase (Homo sapiens, UniProt P09917).
T3 sequence (P09917 whole entry): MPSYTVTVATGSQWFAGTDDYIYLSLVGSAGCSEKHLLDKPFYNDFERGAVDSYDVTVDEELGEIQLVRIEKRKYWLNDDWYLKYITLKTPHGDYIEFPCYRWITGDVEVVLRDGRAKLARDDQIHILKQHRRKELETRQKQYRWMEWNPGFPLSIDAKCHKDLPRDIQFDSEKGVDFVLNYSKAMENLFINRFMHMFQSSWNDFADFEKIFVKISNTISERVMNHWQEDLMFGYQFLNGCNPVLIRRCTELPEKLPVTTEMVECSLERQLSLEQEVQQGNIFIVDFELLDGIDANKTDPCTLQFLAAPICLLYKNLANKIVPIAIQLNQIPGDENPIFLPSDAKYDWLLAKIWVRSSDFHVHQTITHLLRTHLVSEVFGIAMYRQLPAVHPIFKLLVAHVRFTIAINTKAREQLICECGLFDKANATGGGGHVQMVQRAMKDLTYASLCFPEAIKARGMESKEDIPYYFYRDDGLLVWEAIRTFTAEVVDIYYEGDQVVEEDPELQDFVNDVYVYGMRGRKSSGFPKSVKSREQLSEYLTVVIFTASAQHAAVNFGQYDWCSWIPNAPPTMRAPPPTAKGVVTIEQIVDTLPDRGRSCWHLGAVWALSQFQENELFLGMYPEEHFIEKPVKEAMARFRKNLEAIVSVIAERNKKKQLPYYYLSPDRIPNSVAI
The data set can be described thus: Inhibitory activity against intact human PMNL, LTB4 5-lipoxygenase was evaluated.

A short description of data set [6]: Compound was evaluated for Plasma levels upon oral administration at 30 mg/kg in Dog at maximum of 0.3 hours. The data set is classed as ADME, organism-based, Canis lupus familiaris. The arrangement: dose 30 mg/kg, route oral.
The target in data set [7] is T4, Polyunsaturated fatty acid 5-lipoxygenase (Rattus norvegicus, UniProt P12527).
T4 sequence (P12527 whole entry): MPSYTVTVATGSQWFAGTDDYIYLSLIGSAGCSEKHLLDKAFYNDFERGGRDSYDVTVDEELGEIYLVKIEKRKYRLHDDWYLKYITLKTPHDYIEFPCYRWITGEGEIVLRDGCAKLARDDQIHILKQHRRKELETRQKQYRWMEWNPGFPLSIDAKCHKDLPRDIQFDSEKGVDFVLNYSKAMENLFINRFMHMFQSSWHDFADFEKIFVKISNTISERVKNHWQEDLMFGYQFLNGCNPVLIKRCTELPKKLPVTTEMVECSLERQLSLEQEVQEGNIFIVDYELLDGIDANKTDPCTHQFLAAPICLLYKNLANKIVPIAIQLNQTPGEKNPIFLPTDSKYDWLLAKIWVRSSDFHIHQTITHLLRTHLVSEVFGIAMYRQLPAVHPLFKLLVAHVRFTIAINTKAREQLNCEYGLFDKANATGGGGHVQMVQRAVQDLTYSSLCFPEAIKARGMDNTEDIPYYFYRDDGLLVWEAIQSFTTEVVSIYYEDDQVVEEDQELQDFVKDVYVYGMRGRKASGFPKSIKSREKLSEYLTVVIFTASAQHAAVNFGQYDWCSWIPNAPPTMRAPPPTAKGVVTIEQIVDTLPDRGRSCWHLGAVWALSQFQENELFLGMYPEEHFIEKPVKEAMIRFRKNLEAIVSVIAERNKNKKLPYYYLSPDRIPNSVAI
The data set can be described thus: Inhibitory activity against RBL broken cell-supematant 5-lipoxygenase was evaluated. The data set is classed as cell-based.

Data set [8] concerns the target Cyclooxygenase (Homo sapiens) (UniProt P35354+P23219). In words: Inhibitory activity against human whole blood, TXB2 cyclooxygenase was evaluated at 100 uM. The data set is classed as protein assay.
The nature of data set [9]: Compound was evaluated for Plasma levels upon oral administration at 30 mg/kg in Monkey at maximum of 1.0 hours. Conditions: cercopithecidae, read-out: Concentration. The data set is classed as ADME, organism-based. The arrangement: dose 30 mg/kg, route oral.
For data set [10], the target named is T4, Polyunsaturated fatty acid 5-lipoxygenase. The data set can be described thus: Inhibitory activity against intact rat PMNL, LTB4 5-lipoxygenase was evaluated.
Data set [11] in a line: Half-life upon intravenous administration was tested. It counts as ADME, organism-based. As to conditions: in vivo.
Data set [12] can be described thus: Compound was evaluated for Plasma levels upon oral administration at 30 mg/kg in Monkey at maximum of 0.4 hours. It counts as ADME, organism-based. Details: dose 30 mg/kg, route oral. Conditions: cercopithecidae, read-out: Concentration.
Data set [13] has as its target T3, Polyunsaturated fatty acid 5-lipoxygenase. In words: Inhibitory activity against human whole blood, LTB4 5-lipoxygenase was evaluated.
Data set [14] addresses Cyclooxygenase (Rattus norvegicus) (UniProt P35355+Q63921). The data set can be described thus: Inhibitory activity against intact rat PMNL, PGE-2 cyclooxygenase was evaluated at 100 uM. It counts as protein assay.
The target of data set [15] is T5, Polyunsaturated fatty acid lipoxygenase ALOX12 (Homo sapiens, UniProt P18054).
T5 sequence (P18054 whole entry): T2 sequence (whole entry)
In words: Inhibitory activity against human platelet 12-lipoxygenase was evaluated.

Each structure is given as a SMILES string.

As for `O=C1CCCN(c2ccc(O[C@H]3O[C@@H](C(=O)O)[C@H](O)[C@@H](O)[C@@H]3O)cc2)N1`, the Activity entry in the data set filed under Rattus norvegicus [1] is recorded as “Toxic”.
For the compound `O=C(O)[C@H]1O[C@@H](OC2=NN(c3ccccc3)CCC2)[C@H](O)[C@@H](O)[C@@H]1O`, in the data set listed under Rattus norvegicus [1], the Activity result is given as “Toxic”.
Compound `NC1=NN(c2cccc(C(F)(F)F)c2)CC1` [BW-755C] returned an IC50 on Cyclooxygenase of 0.8 µM. The same compound gave a median effective dose (ED50) in the data set with Rattus norvegicus [2] of 36 mg/kg. Further, the inhibition in [3] stood at 5%.
Consider `O=C1CCCN(c2ccc(O)cc2)N1`, for which the Activity entry in the data set listed under Rattus norvegicus [1] is “Toxic”.
On the same count and under the same terms, next, `O=C1CCC(O)N(c2ccccc2)N1` (stereo unspecified): “Toxic”.
In the data set with Rattus norvegicus [4], `O=C1CCCN(c2ccccc2)N1` came in with an ED50 of 6 mg/kg. In addition, the half-inhibitory concentration (IC50) amounted to 1 µM in data set [5], 4.3 µM in data set [7], 1.2 µM in data set [10] and 0.7 µM in data set [13]. Further, the concentration at 0.3 h in data set [6] stood at 124 µM. Also, the inhibition is 13% in data set [8], 7% in data set [3] and 3% in [14]. In addition, the Cmax in data set [9] was 90 µM; in [12], 22 µM. For the same compound, in data set [11], the half-life was 1.1 h.
The compound `O=C1CCN(c2ccccc2)N1` [PHENIDONE] had an ED50 in the data set with Rattus norvegicus [2] of 17 mg/kg. The IC50 in data set [15] worked out at 0.1 µM.

A word on the IC50: it is the concentration needed to halve the response being measured. Usually ED50 stands for the dose that gives a 50% effect, or the effect in half of the subjects. The term inhibition denotes the share of the control response that was lost under treatment. Usually half-life stands for how long it takes for the measured level to halve.
